For 27 compounds, Ki results are on record in US8399520B2, “Selective estrogen receptor modulator” (Eisai R&D Management Co., Ltd., priority 2002, dated 2013).

By Ki is commonly meant a dissociation constant, usually derived from enzyme kinetics or from competition with a known ligand.

The experiment deals with T1, estrogen receptor derived from bovine uterus (Bos taurus, UniProt P49884).
T1 construct: estrogen receptor derived from bovine uterus was diluted with the assay buffer solution so that 10 to 20 μg total protein was present; from tissue; host or cells: bovine uterus
T1 sequence (P49884 1-596): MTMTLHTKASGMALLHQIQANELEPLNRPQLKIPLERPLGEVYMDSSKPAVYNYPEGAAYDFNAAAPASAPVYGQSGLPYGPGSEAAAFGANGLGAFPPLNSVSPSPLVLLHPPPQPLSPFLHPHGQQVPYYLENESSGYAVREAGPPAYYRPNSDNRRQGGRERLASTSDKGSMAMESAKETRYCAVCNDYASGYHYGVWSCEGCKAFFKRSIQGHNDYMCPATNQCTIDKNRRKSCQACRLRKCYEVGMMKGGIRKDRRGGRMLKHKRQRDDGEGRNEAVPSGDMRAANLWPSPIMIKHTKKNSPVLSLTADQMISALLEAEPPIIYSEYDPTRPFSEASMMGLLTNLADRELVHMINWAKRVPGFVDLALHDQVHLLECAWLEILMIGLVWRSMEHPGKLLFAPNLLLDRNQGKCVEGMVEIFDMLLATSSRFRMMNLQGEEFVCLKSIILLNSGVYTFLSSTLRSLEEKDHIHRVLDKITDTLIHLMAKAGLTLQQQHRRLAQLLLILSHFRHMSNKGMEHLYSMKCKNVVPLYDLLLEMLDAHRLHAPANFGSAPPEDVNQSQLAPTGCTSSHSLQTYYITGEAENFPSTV
Put plainly: In vitro estrogen receptor binding assay. The settings on record: read-out: Estrogen receptor binding affinity: Ki. As to the method:
The binding affinity of the compound according to the present invention to estrogen receptor was measured using an in vitro estrogen receptor binding assay. The binding affinity measures the ability of the compound according to the present invention to remove [^3H]-estradiol from estrogen receptor derived from bovine uterus. The following materials were used in this assay: (1) the assay buffer solution was 20 mM Tris/HCl (pH 7.5) containing 1 mM dithiothreitol (DTT), 1 mM EDTA and 10% glycerol; (2) radioactive ligand was [^3H]-estradiol purchased from Amersham Life Science; (3) the cold ligand was diethylstilbestrol purchased from sigma (Sigma); and (4) the estrogen receptor was derived from bovine uterus. The compound to be tested was prepared as a 10% DMSO solution. [^3H]-estradiol was dissolved in the assay buffer solution so as to obtain a final concentration of 1 nM. […] Each plate contains total binding, non-specific binding and the binding which were not inhibited by various concentrations of the compound. The plate was incubated for 1 hour at room temperature. […] These mixtures were centrifuged, and the supernatant thereof was evaluated for its radioactivity using a liquid scintillation counter. Specific binding was calculated by subtracting non-specific binding dpm (counts remaining in the supernatant obtained by centrifugal separation of a reaction mixture containing estrogen receptor derived from bovine uterus, radioactive ligand and excess cold ligand) from the total binding dpm (counts remaining in the supernatant obtained by centrifugal separation of a reaction mixture containing estrogen receptor derived from bovine uterus and radioactive ligand only). The effectiveness of the compound was evaluated by Ki. […] C is the concentration of [^3H]-estradiol in the reaction mixture, and Kd is the [^3H]-estradiol dissociation constant. The Kd was determined by Scatchard analysis. That is to say, various concentrations of [^3H]-estradiol were used to measure the concentration of specifically bound [^3H]-estradiol, which served as the horizontal axis, the value which was obtained by dividing the concentration of specifically bound [^3H]-estradiol by the concentration [^3H]-estradiol not bound to the receptor served as the vertical axis to produce a plot, and the negative value of the inverse of the slope of the resulting straight line was used as Kd.
As to `CCN(Cc1ccc(OCCN2CCCCC2)c(F)c1)c1cc(O)ccc1[C@@H]1CCc2cc(O)ccc2C1` [188 (R), (R)-6-{2-{ethyl-[3-fluoro-4-(2-piperidin-1-ylethoxy)benzyl]amino}-4-hydroxyphenyl}-5,6,7,8-tetrahydronaphthalen-2-ol], the Ki is 1.2 nM.
On to `O=C(c1ccc(OCCN2CCCCC2)cc1)c1cc(O)ccc1-c1ccc2cc(O)ccc2c1` [Example 8, [5-Hydroxy-2-(6-hydroxynaphthalen-2-yl)phenyl][4-(2-piperidin-1-yl-ethoxy)phenyl]methanone], for which the Ki was found to be 0.64 nM.
The figure for `O=c1cccc(C2=Cc3ccc(O)cc3CCC2)n1Cc1ccc(OCCN2CCCCCC2)cc1` [Example 15, 1-[4-(2-Azepan-1-ylethoxy)benzyl]-6-(2-hydroxy-8,9-dihydro-7H-benzocyclohepten-6-yl)-1H-pyridin-2-one] is 60 nM.
The figure for `Oc1ccc2c(c1)CCN(c1cc(O)ccc1Cc1ccc(OCCN3CCCCC3)cc1)CC2` [Example 21, 3-{5-Hydroxy-2-[4-(2-piperidin-1-ylethoxy)benzyl]phenyl}-2,3,4,5-tetrahydro-1H-benz[d]azepin-7-ol] is 47 nM; for `CCN(CC)c1cc(O)ccc1C1CCc2cc(O)ccc2C1` (stereo not drawn) [Example 44, 6-(2-Diethylamino-4-hydroxyphenyl)-5,6,7,8-tetrahydronaphthalen-2-ol] it is 21 nM.
`CCN(Cc1ccccc1)c1cc(O)ccc1C1CCc2cc(O)ccc2C1` (stereo not drawn) [Example 45, 6-[2-(Benzylethylamino)-4-hydroxyphenyl]-5,6,7,8-tetrahydronaphthalen-2-ol]: the Ki is 8.4 nM.
For `CN(CCc1ccc(O)cc1)c1cc(O)ccc1C1CCc2cc(O)ccc2C1` (stereo not drawn) [Example 48, 6-{4-Hydroxy-2-{[2-(4-hydroxyphenyl)ethyl]methylamino}phenyl}-5,6,7,8-tetrahydronaphthalen-2-ol], the Ki was 13 nM.
As for `CCN(Cc1ccncc1)c1cc(O)ccc1C1CCc2cc(O)ccc2C1` (stereo not drawn) [Example 54, 6-{2-[Ethyl(pyridin-4-ylmethyl)amino]-4-hydroxyphenyl}-5,6,7,8-tetrahydronaphthalen-2-ol], the Ki was 32 nM.
Regarding `CCn1ccc2c(O)ccc(C3CCc4cc(O)ccc4C3)c21` (stereo not drawn) [Example 55, 1-Ethyl-7-(6-hydroxy-1,2,3,4-tetrahydronaphthalen-2-yl)-1H-indol-4-ol], the Ki is 84 nM.
As to `CN(Cc1ccc(OCCN2CCCCC2)cc1)c1cc(O)ccc1-c1ccc2cc(O)ccc2c1` [Example 113, 6-{4-Hydroxy-2-{methyl[4-(2-piperidin-1-ylethoxy)benzyl]amino}phenyl}naphthalen-2-ol], the Ki amounted to 1.6 nM.
On to `Oc1ccc2c(c1)CCC(c1ccc(O)cc1NCc1ccc(OCCN3CCCCC3)cc1)=C2` [Example 130, 6-{4-Hydroxy-2-[4-(2-piperidin-1-ylethoxy)benzylamino]phenyl}-7,8-dihydronaphthalen-2-ol], for which the Ki was 8.2 nM.
Take `OCCN(Cc1ccc(OCCN2CCCCCC2)cc1)c1cc(O)ccc1C1CCc2cc(O)ccc2C1` (stereo not drawn) [Example 177, 6-{2-{[4-(2-Azepan-1-ylethoxy)benzyl](2-hydroxyethyl)amino}-4-hydroxyphenyl}-5,6,7,8-tetrahydronaphthalen-2-ol]: the Ki was found to be 18 nM.
`Oc1ccc2c(c1)CCC(c1ccc(O)cc1N(Cc1ccc(OCCN3CCCCCC3)cc1)CC(F)(F)F)C2` (stereo not drawn) [Example 179, 6-{2-{[4-(2-Azepan-1-ylethoxy)benzyl](2,2,2-trifluoroethyl)amino}-4-hydroxyphenyl}-5,6,7,8-tetrahydronaphthalen-2-ol]: the Ki amounted to 9 nM.
The figure for `COCCN(Cc1ccc(OCCN2CCCCC2)c(F)c1)c1cc(O)ccc1C1CCc2cc(O)ccc2C1` (stereo not drawn) [Example 183, 6-{2-{[3-Fluoro-4-(2-piperidin-1-ylethoxy)benzyl](2-methoxyethyl)amino}-4-hydroxyphenyl}-5,6,7,8-tetrahydronaphthalen-2-ol] is 18 nM; for `CCN(Cc1ccc(OCCN2CCCCCC2)cc1)c1cccc(C)c1C1CCc2cc(O)ccc2C1` (stereo not drawn) [Example 293, 6-{2-{[4-(2-Azepan-1-ylethoxy)benzyl]ethylamino}-6-methylphenyl}-5,6,7,8-tetrahydronaphthalen-2-ol] it is 32 nM.
Turning to `CCN(Cc1ccc(OCCN2CCCCC2)c(F)c1)c1ccc(F)cc1C1CCc2cc(O)ccc2C1` (stereo not drawn) [Example 295, 6-{2-{Ethyl[3-fluoro-4-(2-piperidin-1-ylethoxy)benzyl]amino}-5-fluorophenyl}-5,6,7,8-tetrahydronaphthalen-2-ol], the Ki was found to be 17 nM.
Regarding `CCN(Cc1ccc(OCCN2CCCCCC2)cc1)c1cc(O)ccc1C1CCCc2cc(O)ccc2C1` (stereo not drawn) [Example 298, 6-{2-{[4-(2-Azepan-1-ylethoxy)benzyl]ethylamino}-4-hydroxyphenyl}-6,7,8,9-tetrahydro-5H-benzocyclohepten-2-ol], the Ki was found to be 13 nM.
With `CC1(C)c2ccc(O)cc2CCC1c1ccc(O)cc1Nc1ccc(OCCN2CCCCC2)c(F)c1` (stereo not drawn) [Example 305, 6-{2-[3-Fluoro-4-(2-piperidin-1-ylethoxy)phenylamino]-4-hydroxyphenyl}-5,5-dimethyl-5,6,7,8-tetrahydronaphthalen-2-ol], the Ki is 8.6 nM.
The figure for `CCN(Cc1ccc(OCCN2CCCCCC2)cc1)c1cc(O)ccc1C1=Cc2ccc(O)cc2CC1(C)C` [Example 311, 6-{2-{[4-(2-Azepan-1-ylethoxy)benzyl]ethylamino}-4-hydroxyphenyl}-7,7-dimethyl-7,8-dihydronaphthalen-2-ol] is 5.1 nM; for `Oc1ccc(-c2nc3ccc(O)cc3s2)c(NCc2ccc(OCCN3CCCCC3)cc2)c1` [Example 319, 2-{4-Hydroxy-2-[4-(2-piperidin-1-ylethoxy)benzylamino]phenyl}benzothiazol-6-ol] it is 1.6 nM.
Regarding `CCN(Cc1ccc(OCCN2CCCCC2)c(F)c1)c1cc(O)ccc1-c1cc2ccc(O)cc2s1` [Example 322, 2-{2-{Ethyl[3-fluoro-4-(2-piperidin-1-ylethoxy)benzyl]amino}-4-hydroxyphenyl}benzo[b]thiophen-6-ol], the Ki was 3.1 nM.
Turning to `ON=C1CCc2cc(-c3ccc(O)cc3Nc3ccc(OCCN4CCCCC4)cc3)ccc21` [Example 327, 5-{4-Hydroxy-2-[4-(2-piperidin-1-ylethoxy)phenylamino]phenyl}indan-1-one oxime], the Ki stood at 42 nM.
Turning to `CCN(Cc1ccc(OCCN2CCCCCC2)cc1)c1cc(O)ccc1C1CCN(c2cccc(O)c2)C1` (stereo not drawn) [Example 329, 3-{[4-(2-Azepan-1-ylethoxy)benzyl]ethylamino}-4-[1-(3-hydroxyphenyl)pyrrolidin-3-yl]phenol], the Ki stood at 94 nM.
As for `Oc1ccc2c(c1)CCC(c1ccc(O)cc1N1Cc3ccc(OCCN4CCCCC4)cc3C1)C2` (stereo not drawn) [Example 338, 6-{4-Hydroxy-2-[5-(2-piperidin-1-ylethoxy)-1,3-dihydroisoindol-2-yl]phenyl}-5,6,7,8-tetrahydronaphthalen-2-ol], the Ki was found to be 22 nM.
As for `CN(Cc1ccc(OCCN2CCCCC2)cc1)c1cc(O)ccc1CCc1ccc(O)cc1` [Example 343, 4-[2-(4-Hydroxyphenyl)ethyl]-3-{methyl-[4-(2-piperidin-1-ylethoxy)benzyl]amino}phenol], the Ki stood at 31 nM.
With `Oc1ccc(/C=C/c2ccc(O)cc2NCc2ccc(OCCN3CCCCC3)c(F)c2)cc1` [Example 349, 3-[3-Fluoro-4-(2-piperidin-1-ylethoxy)benzylamino]-4-[2-(4-hydroxyphenyl)vinyl]phenol], the Ki turned out to be 16 nM.
The figure for `CC(C)N(CCOc1ccc(CCc2cc(O)ccc2C2CCc3cc(O)ccc3C2)cc1)C(C)C` (stereo not drawn) [Example 357, 6-{2-{2-[4-(2-Diisopropylaminoethoxy)phenyl]ethyl}-4-hydroxyphenyl}-5,6,7,8-tetrahydronaphthalen-2-ol] is 8.2 nM.
